Source: patent US11685746B2, “Heteroaryl compounds for treating Huntington's disease” (PTC THERAPEUTICS, INC., priority 2018, dated 2023)

Test system: Endogenous Huntingtin Protein
Assay: Endogenous Huntingtin Protein Assay (MSD plates, MW1 or MAB2166 capture antibody)
Assay type: cell-based
Details: Table 1
Protocol: Endogenous Huntingtin Protein Assay
Meso Scale Discovery (MSD) 96-well or 384-well plates were coated overnight at 4° C. with MW1 (expanded polyglutamine) or MAB2166 monoclonal antibody (for capture) at a concentration of 1 μg/mL in PBS (30 μL per well). Plates were then washed three times with 300 μL wash buffer (0.05% Tween-20 in PBS) and blocked (100 μL blocking buffer; 5% BSA in PBS) for 4-5 hours at room temperature with rotational shaking and then washed three times with wash buffer.
Samples (25 μL) were transferred to the antibody-coated MSD plate and incubated overnight at 4° C. After removal of the lysates, the plate was washed three times with wash buffer, and 25 μL of #5656S (Cell signaling; rabbit monoclonal) secondary antibody (diluted to 0.25 μg/mL in 0.05% Tween-20 in blocking buffer) was added to each well and incubated with shaking for 1 Hour at room temperature. Following incubation with the secondary antibody, the wells were rinsed with wash buffer after which 25 μL of goat anti-rabbit SULFO TAG secondary detection antibody (required aspect of the MSD system) (diluted to 0.25 μg/mL in 0.05% Tween-20 in blocking buffer) was added to each well and incubated with shaking for 1 hour at room temperature. After rinsing three times with wash buffer, 150 μL of read buffer T with surfactant (MSD) were added to each empty well, and the plate was imaged on a SI 6000 imager (MSD) according to manufacturers' instructions provided for 96- or 384-well plates.

Structure (SMILES) | IC50 [nM]
CN(c1nc2sc(-c3ccc(-c4cn[nH]c4)cc3O)nc2s1)C1CC(C)(C)NC(C)(C)C1 [Compound 1, 2-{5-[methyl(2,2,6,6-tetramethylpiperidin-4-yl)amino][1,3]thiazolo[5,4-d][1,3]thiazol-2-yl}-5-(1H-pyrazol-4-yl)phenol] | ≤ 100
Cc1cc(-c2cn3cc(C4CCNCC4)nc3s2)cc2cn(C)nc12 [Compound 2, 2,7-dimethyl-5-[6-(piperidin-4-yl)imidazo[2,1-b][1,3]thiazol-2-yl]-2H-indazole] | ≤ 100
CN(c1nc2sc(-c3ccc(-c4cn[nH]c4)c(F)c3F)nc2s1)C1CC(C)(C)NC(C)(C)C1 [Compound 3, 5-[2,3-difluoro-4-(1H-pyrazol-4-yl)phenyl]-N-methyl-N-(2,2,6,6-tetramethylpiperidin-4-yl)[1,3]thiazolo[5,4-d][1,3]thiazol-2-amine] | 100 to 500
CN(c1nc2sc(-c3cc(F)c(-c4cn[nH]c4)cc3F)nc2s1)C1CC(C)(C)NC(C)(C)C1 [Compound 4, 5-[2,5-difluoro-4-(1H-pyrazol-4-yl)phenyl]-N-methyl-N-(2,2,6,6-tetramethylpiperidin-4-yl)[1,3]thiazolo[5,4-d][1,3]thiazol-2-amine] | ≤ 100
CN(c1nc2sc(-c3cc(F)c(-c4cn[nH]c4)c(F)c3)nc2s1)C1CC(C)(C)NC(C)(C)C1 [Compound 5, 5-[3,5-difluoro-4-(1H-pyrazol-4-yl)phenyl]-N-methyl-N-(2,2,6,6-tetramethylpiperidin-4-yl)[1,3]thiazolo[5,4-d][1,3]thiazol-2-amine] | ≤ 100
Oc1cc(-c2cn[nH]c2)ccc1-c1nc2sc(N3CCNCC3)nc2s1 [Compound 6, 2-[5-(piperazin-1-yl)[1,3]thiazolo[5,4-d][1,3]thiazol-2-yl]-5-(1H-pyrazol-4-yl)phenol] | 1000 to 3000
Cn1cc2cc(-c3nc4sc(N5CCNCC5)nc4s3)cc(C#N)c2n1 [Compound 7, 2-methyl-5-[5-(piperazin-1-yl)[1,3]thiazolo[5,4-d][1,3]thiazol-2-yl]-2H-indazole-7-carbonitrile] | 500 to 1000
Cc1cn2nc(-c3cn4cc(C5CCNCC5)nc4s3)cc(C)c2n1 [Compound 8, 2,8-dimethyl-6-[6-(piperidin-4-yl)imidazo[2,1-b][1,3]thiazol-2-yl]imidazo[1,2-b]pyridazine] | ≤ 100
CN(c1nn2c(Cl)c(-c3ccc(-c4cn[nH]c4)cc3O)nc2s1)C1CC(C)(C)NC(C)(C)C1 [Compound 9, 2-{5-chloro-2-[methyl(2,2,6,6-tetramethylpiperidin-4-yl)amino]imidazo[2,1-b][1,3,4]thiadiazol-6-yl}-5-(1H-pyrazol-4-yl)phenol] | 100 to 500
Cc1cn2cc(-c3nc4sc(C5CCNCC5)nc4s3)cc(C#N)c2n1 [Compound 10, 2-methyl-6-[5-(piperidin-4-yl)[1,3]thiazolo[5,4-d][1,3]thiazol-2-yl]imidazo[1,2-a]pyridine-8-carbonitrile] | 100 to 500
Cn1cc2cc(-c3nc4sc(C5CCNCC5)nc4s3)cc(F)c2n1 [Compound 11, 7-fluoro-2-methyl-5-[5-(piperidin-4-yl)[1,3]thiazolo[5,4-d][1,3]thiazol-2-yl]-2H-indazole] | ≤ 100
Cc1cn2nc(-c3nc4sc(C5CCNCC5)nc4s3)cc(C)c2n1 [Compound 12, 2,8-dimethyl-6-[5-(piperidin-4-yl)[1,3]thiazolo[5,4-d][1,3]thiazol-2-yl]imidazo[1,2-b]pyridazine] | 100 to 500
Oc1cc(-c2cn[nH]c2)ccc1-c1nc2sc(NC3CC4CCC(C3)N4)nc2s1 (stereo not drawn) [Compound 13, 2-{5-[(3-exo)-8-azabicyclo[3.2.1]oct-3-ylamino][1,3]thiazolo[5,4-d][1,3]thiazol-2-yl}-5-(1H-pyrazol-4-yl)phenol] | ≤ 100
CN(c1nc2sc(-c3ccc(-c4cn[nH]c4)cc3O)nc2s1)C1CCNCC1 [Compound 14, 2-{5-[methyl(piperidin-4-yl)amino][1,3]thiazolo[5,4-d][1,3]thiazol-2-yl}-5-(1H-pyrazol-4-yl)phenol] | ≤ 100
Cn1cc2cc(-c3nc4sc(C5CCNCC5)nc4s3)cc(C#N)c2n1 [Compound 15, 2-methyl-5-[5-(piperidin-4-yl)[1,3]thiazolo[5,4-d][1,3]thiazol-2-yl]-2H-indazole-7-carbonitrile] | ≤ 100
CN(c1nn2cc(-c3ccc(-c4cn[nH]c4)cc3O)nc2s1)C1CC(C)(C)NC(C)(C)C1 [Compound 17, 2-{2-[methyl(2,2,6,6-tetramethylpiperidin-4-yl)amino]imidazo[2,1-b][1,3,4]thiadiazol-6-yl}-5-(1H-pyrazol-4-yl)phenol] | 500 to 1000
CN(c1nn2cc(-c3ccc(-c4cn[nH]c4)cc3O)nc2s1)C1CC2CCC(C1)N2 (stereo not drawn) [Compound 18, 2-{2-[(3-exo)-8-azabicyclo[3.2.1]oct-3-yl(methyl)amino]imidazo[2,1-b][1,3,4]thiadiazol-6-yl}-5-(1H-pyrazol-4-yl)phenol] | 100 to 500
CN1C2CCC1CC(Nc1nn3cc(-c4ccc(-c5cn[nH]c5)cc4O)nc3s1)C2 (stereo not drawn) [Compound 19, 2-(2-{[(3-exo)-8-methyl-8-azabicyclo[3.2.1]oct-3-yl]amino]imidazo[2,1-b][1,3,4]thiadiazol-6-yl)-5-(1H-pyrazol-4-yl)phenol] | 100 to 500
CN(c1nc2sc(-c3cc(F)c(-c4cn[nH]c4)cc3F)nc2s1)C1CCNCC1 [Compound 20, 5-[2,5-difluoro-4-(1H-pyrazol-4-yl)phenyl]-N-methyl-N-(piperidin-4-yl)[1,3]thiazolo[5,4-d][1,3]thiazol-2-amine] | 100 to 500
CN(c1nc2sc(-c3cc(F)c(-c4cn[nH]c4)c(F)c3)nc2s1)C1CCNCC1 [Compound 21, 5-[3,5-difluoro-4-(1H-pyrazol-4-yl)phenyl]-N-methyl-N-(piperidin-4-yl)[1,3]thiazolo[5,4-d][1,3]thiazol-2-amine] | 1000 to 3000
CN1CCC(N(C)c2nc3sc(-c4ccc(-c5cn[nH]c5)cc4O)nc3s2)CC1 [Compound 24, 2-{5-[methyl(1-methylpiperidin-4-yl)amino][1,3]thiazolo[5,4-d][1,3]thiazol-2-yl}-5-(1H-pyrazol-4-yl)phenol] | ≤ 100
CN1CCC(N(C)c2nn3cc(-c4cc(C#N)c5nn(C)cc5c4)nc3s2)CC1 [Compound 31, 2-methyl-5-{2-[methyl(1-methylpiperidin-4-yl)amino]imidazo[2,1-b][1,3,4]thiadiazol-6-yl}-2H-indazole-7-carbonitrile] | 3000 to 9000
Cn1cc2cc(-c3cn4nc(C5=CC6CCC(C5)N6)sc4n3)cc(C#N)c2n1 (stereo not drawn) [Compound 33, 5-[2-(8-azabicyclo[3.2.1]oct-2-en-3-yl)imidazo[2,1-b][1,3,4]thiadiazol-6-yl]-2-methyl-2H-indazole-7-carbonitrile] | 1000 to 3000

The next lines start with the values.

IC50 [nM] | Structure (SMILES)
≤ 100 | Cc1cc(-c2nc3sc(C4CCNCC4)nc3s2)cc2cn(C)nc12 [Compound 16, 2,7-dimethyl-5-[5-(piperidin-4-yl)[1,3]thiazolo[5,4-d][1,3]thiazol-2-yl]-2H-indazole]
≤ 100 | Oc1cc(-c2cn[nH]c2)ccc1-c1nc2sc(NC3CCNCC3)nc2s1 [Compound 22, 2-[5-(piperidin-4-ylamino)[1,3]thiazolo[5,4-d][1,3]thiazol-2-yl]-5-(1H-pyrazol-4-yl)phenol]
≤ 100 | CN1CCC(Nc2nc3sc(-c4ccc(-c5cn[nH]c5)cc4O)nc3s2)CC1 [Compound 23, 2-{5-[(1-methylpiperidin-4-yl)amino][1,3]thiazolo[5,4-d][1,3]thiazol-2-yl}-5-(1H-pyrazol-4-yl)phenol]
100 to 500 | Cn1cc2cc(-c3nc4sc(C5CCNCC5)nc4s3)ccc2n1 [Compound 25, 2-methyl-5-[5-(piperidin-4-yl)[1,3]thiazolo[5,4-d][1,3]thiazol-2-yl]-2H-indazole]
≤ 100 | COc1cc(-c2nc3sc(C4CCNCC4)nc3s2)cc2cn(C)nc12 [Compound 26, 7-methoxy-2-methyl-5-[5-(piperidin-4-yl)[1,3]thiazolo[5,4-d][1,3]thiazol-2-yl]-2H-indazole]
≤ 100 | Cn1cc2cc(-c3nn4cc(C5CCNCC5)nc4s3)cc(C#N)c2n1 [Compound 27, 2-methyl-5-[6-(piperidin-4-yl)imidazo[2,1-b][1,3,4]thiadiazol-2-yl]-2H-indazole-7-carbonitrile]
≤ 100 | Cn1cc2cc(-c3nn4cc(C5CCNCC5)nc4s3)cc(F)c2n1 [Compound 28, 7-fluoro-2-methyl-5-[6-(piperidin-4-yl)imidazo[2,1-b][1,3,4]thiadiazol-2-yl]-2H-indazole]
100 to 500 | Cc1cn2cc(-c3nn4cc(C5CCNCC5)nc4s3)cc(C#N)c2n1 [Compound 29, 2-methyl-6-[6-(piperidin-4-yl)imidazo[2,1-b][1,3,4]thiadiazol-2-yl]imidazo[1,2-a]pyridine-8-carbonitrile]
100 to 500 | Cc1cn2cc(-c3nn4cc(C5CCNCC5)nc4s3)cc(F)c2n1 [Compound 30, 8-fluoro-2-methyl-6-[6-(piperidin-4-yl)imidazo[2,1-b][1,3,4]thiadiazol-2-yl]imidazo[1,2-a]pyridine]
100 to 500 | Cn1cc2cc(-c3cn4nc(C5CCNCC5)sc4n3)cc(C#N)c2n1 [Compound 32, 2-methyl-5-[2-(piperidin-4-yl)imidazo[2,1-b][1,3,4]thiadiazol-6-yl]-2H-indazole-7-carbonitrile]
